Experimental data published in ChEMBL document CHEMBL1955818, “Might the observed α(2A)-adrenoreceptor agonism or antagonism of allyphenyline analogues be ascribed to different molecular conformations?” (Bioorg Med Chem, 2012).

How the values were obtained:
[1] = biological target: T1, Alpha-2A adrenergic receptor (Homo sapiens, UniProt P08913); experiment: Displacement of [3H]RS-79948-197 from human adrenoceptor aplha 2A expressed in CHO cells; type: cell-based
T1 sequence (P08913 whole entry): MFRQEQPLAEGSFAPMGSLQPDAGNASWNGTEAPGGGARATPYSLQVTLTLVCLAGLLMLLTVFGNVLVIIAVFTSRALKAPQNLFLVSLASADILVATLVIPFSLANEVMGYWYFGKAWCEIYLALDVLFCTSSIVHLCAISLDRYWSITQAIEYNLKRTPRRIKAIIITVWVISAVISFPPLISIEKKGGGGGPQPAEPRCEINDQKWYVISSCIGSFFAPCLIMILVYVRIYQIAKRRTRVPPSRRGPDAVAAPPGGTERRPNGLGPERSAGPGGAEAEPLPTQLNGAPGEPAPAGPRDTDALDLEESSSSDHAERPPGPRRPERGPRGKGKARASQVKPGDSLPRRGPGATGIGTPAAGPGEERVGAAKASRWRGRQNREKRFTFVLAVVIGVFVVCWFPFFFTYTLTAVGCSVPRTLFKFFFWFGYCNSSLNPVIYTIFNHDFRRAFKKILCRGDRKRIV

[2] = biological target: T2, Alpha-2B adrenergic receptor (Homo sapiens, UniProt P18089); experiment: Displacement of [3H]RS-79948-197 from human adrenoceptor aplha 2B expressed in CHO cells; type: cell-based
T2 sequence (P18089 whole entry): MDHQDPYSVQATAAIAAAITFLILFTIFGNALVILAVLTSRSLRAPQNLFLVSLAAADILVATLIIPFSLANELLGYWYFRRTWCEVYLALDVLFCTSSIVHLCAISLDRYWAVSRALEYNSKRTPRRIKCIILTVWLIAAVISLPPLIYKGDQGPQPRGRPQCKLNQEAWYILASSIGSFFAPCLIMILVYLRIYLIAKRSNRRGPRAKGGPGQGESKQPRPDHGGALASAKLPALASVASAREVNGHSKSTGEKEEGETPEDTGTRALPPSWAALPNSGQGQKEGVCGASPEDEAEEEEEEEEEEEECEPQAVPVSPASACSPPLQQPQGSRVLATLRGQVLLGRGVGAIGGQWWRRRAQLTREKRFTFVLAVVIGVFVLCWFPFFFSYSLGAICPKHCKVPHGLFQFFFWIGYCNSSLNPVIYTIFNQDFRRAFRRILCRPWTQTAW

[3] = biological target: T3, Alpha-2C adrenergic receptor (Homo sapiens, UniProt P18825); experiment: Displacement of [3H]RS-79948-197 from human adrenoceptor aplha 2C expressed in CHO cells; type: cell-based
T3 sequence (P18825 whole entry): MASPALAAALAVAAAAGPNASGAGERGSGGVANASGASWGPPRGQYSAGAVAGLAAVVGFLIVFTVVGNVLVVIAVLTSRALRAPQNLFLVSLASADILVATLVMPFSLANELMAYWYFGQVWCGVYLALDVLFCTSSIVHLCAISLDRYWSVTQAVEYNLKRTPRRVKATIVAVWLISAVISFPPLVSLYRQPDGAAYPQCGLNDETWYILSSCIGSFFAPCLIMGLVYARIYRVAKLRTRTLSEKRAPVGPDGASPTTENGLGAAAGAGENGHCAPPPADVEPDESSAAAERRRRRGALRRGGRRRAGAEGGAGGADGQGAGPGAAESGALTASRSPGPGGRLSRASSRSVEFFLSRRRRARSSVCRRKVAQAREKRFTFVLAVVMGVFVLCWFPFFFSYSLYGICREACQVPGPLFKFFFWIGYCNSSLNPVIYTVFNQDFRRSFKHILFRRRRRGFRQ

[4] = biological target: T2, Alpha-2B adrenergic receptor; experiment: Agonist activity at human adrenoceptor aplha 2B expressed in CHO cells assessed as rate of extracellular acidification by cytosensor microphysiometric analysis; type: functional, cell-based
[5] = biological target: T3, Alpha-2C adrenergic receptor; experiment: Agonist activity at human adrenoceptor aplha 2C expressed in CHO cells assessed as rate of extracellular acidification by cytosensor microphysiometric analysis; type: functional, cell-based
[6] = biological target: T4, Alpha-2B adrenergic receptor (Homo sapiens) (UniProt P18089); experiment: Intrinsic activity at human adrenoceptor aplha 2B expressed in CHO cells by cytosensor microphysiometric analysis relative to (-)-noradrenaline; type: cell-based
T4 sequence (whole entry): T2 sequence (P18089 whole entry)

[7] = biological target: T5, Alpha-2C adrenergic receptor (Homo sapiens) (UniProt P18825); experiment: Intrinsic activity at human adrenoceptor aplha 2C expressed in CHO cells by cytosensor microphysiometric analysis relative to (-)-noradrenaline; type: cell-based
T5 sequence (whole entry): T3 sequence (P18825 whole entry)

[8] = biological target: T6, Alpha-2A adrenergic receptor (Homo sapiens) (UniProt P08913); details: CHO
T6 sequence (whole entry): T1 sequence (P08913 whole entry)
Description: Antagonist activity at human adrenoceptor aplha 2A expressed in CHO cells assessed as inhibition of clonidine-induced response by cytosensor microphysiometric analysis

[9] = biological target: T1, Alpha-2A adrenergic receptor; experiment: Agonist activity at human adrenoceptor aplha 2A expressed in CHO cells assessed as rate of extracellular acidification by cytosensor microphysiometric analysis; type: functional, cell-based

Row | Compound | Ki [1] [nM] | Ki [2] [nM] | Ki [3] [nM] | EC50 [4] [nM] | EC50 [5] [nM] | Intrinsic activity [6] | Intrinsic activity [7] | pKb [8] | EC50 [9] [nM]
1 | C=C(C)c1ccccc1OC(C)C1=NCCN1 (centres undefined) | 72.4 | 871 | 603 | 1580 | 115 | 0.4 | 0.71 | 7 | –
2 | COc1ccccc1OC(C)C1=NCCN1 (centres undefined) | 57.5 | 871 | 832 | 100000 | 9770 | 0.5 | 0.6 | 6.6 | –
3 | CC(Oc1ccccc1Br)C1=NCCN1 (centres undefined) | 22.9 | 355 | 282 | 316 | 10 | 0.4 | 0.87 | 7.04 | –
4 | CCc1cccc(CC)c1OC(C)C1=NCCN1 (centres undefined) | 31.6 | 269 | 275 | 1000 | 27.5 | 0.8 | 0.65 | – | 11.7
5 | CC(C)Oc1ccccc1OC(C)C1=NCCN1 (centres undefined) | 83.2 | 1580 | 398 | 1740 | 100 | 0.5 | 0.7 | 6.82 | –
6 | CCOc1ccccc1OC(C)C1=NCCN1 (centres undefined) | 97.7 | 1320 | 759 | 3160 | 10000 | 0.5 | 0.45 | 6.5 | –
7 | CC(Oc1ccccc1CC1CC1)C1=NCCN1 (centres undefined) [CYCLOMETHYLINE] | 36.3 | 407 | 275 | 3310 | 2 | 0.7 | 0.8 | – | –
8 | CC(Oc1ccccc1Cl)C1=NCCN1 (centres undefined) | 28.8 | 331 | 490 | 162 | 166 | 0.44 | 0.83 | 7.2 | –
9 | CC(Oc1ccccc1OC1CC1)C1=NCCN1 (centres undefined) | 83.2 | 1050 | 676 | 12900 | 47.9 | 0.6 | 0.7 | 6.9 | –
10 | C=COc1ccccc1OC(C)C1=NCCN1 (centres undefined) | – | – | – | 3160 | 631 | 0.45 | 0.48 | 5 | –
11 | CCc1ccccc1OC(C)C1=NCCN1 (centres undefined) | 24 | 282 | 288 | 10000 | 100 | 0.5 | 0.6 | 6 | –
12 | CC(Oc1c(-c2ccccc2)cccc1-c1ccccc1)C1=NCCN1 (centres undefined) | 490 | 4570 | 631 | 200 | 79.4 | 0.6 | 0.7 | 8 | –
13 | CC(Oc1c(Cl)cccc1Cl)C1=NCCN1 (centres undefined) [LOFEXIDINE] | – | 67.6 | 69.2 | 126 | 1.38 | 0.8 | 0.8 | – | –
14 | CC(Oc1ccccc1S(C)(=O)=O)C1=NCCN1 (centres undefined) | 3160 | 51300 | 3800 | 10000 | 316 | 0.45 | 0.6 | – | 562
15 | CC(Oc1ccccc1C=O)C1=NCCN1 (centres undefined) | 1050 | 2090 | 8710 | 316 | 100 | 0.5 | 0.6 | – | 31.6
16 | CC(Oc1ccccc1C(F)(F)F)C1=NCCN1 (centres undefined) | 182 | 1620 | 977 | 240 | 794 | 0.4 | 0.72 | 6.42 | –
17 | Cc1cccc(C)c1OC(C)C1=NCCN1 (centres undefined) | 11.7 | 182 | 251 | 1480 | 27.5 | 0.8 | 0.82 | – | 18.6
18 | C=CCc1cccc(CC=C)c1OC(C)C1=NCCN1 (centres undefined) | 16.6 | 275 | 129 | 501 | 56.2 | 0.65 | 0.9 | 8.56 | –
19 | CC(=O)c1ccccc1OC(C)C1=NCCN1 (centres undefined) | 1020 | 6170 | 7410 | 295 | 200 | 0.6 | 0.65 | – | 63.1
20 | CC(Oc1ccccc1C(C)C)C1=NCCN1 (centres undefined) | 72.4 | 933 | 457 | 251 | 398 | 0.54 | 0.73 | 6.82 | –
